Counter-ions that a name gives are not always drawn. Like-named read-outs stand apart in the source and are kept apart here. Where only a bound is given, the exact number is not on record here.

One series deals with gastric acid secretion. The series can be described thus: inhibition of gastric juice secretion, method of H. Shay et al. It counts as in vivo. The settings on record: po; rat. As for the experimental part: (§1) All experiments were carried out on rats.
The next series relates to Shay ulcer. Description: Shay ulcer-inhibiting effect, method of H. Shay et al. It counts as in vivo. The settings on record: po, rat. The protocol: as §1
The subject of another series is immobilisation ulcer. Description: immobilisation ulcer inhibition, method of Borsi et al. It counts as in vivo. The conditions noted are these: po, rat, p.o., read-out: Ulcer-inhibiting effect ED50, immob. The protocol:
as §1

The subject of another series is insuline ulcer. Description: insulin ulcer inhibition, method of Borsi et al. The format is in vivo. The conditions noted are these: po, rat, p.o., read-out: Ulcer-inhibiting effect ED50, insulin. As for the experimental part:
as §1

A further series can be described thus: acute toxicity. The conditions noted are these: in vivo, rat. As for the experimental part: as §1
In the next series the test system is ileum. The conditions noted are these: rat.
The next series is described as follows: in vivo. The conditions noted are these: rat.
The mark [1] stands for this setting: ip, i.p., read-out: Acute toxicity LD50, i.p.
Where [2] appears, read: po, p.o., read-out: Acute toxicity LD50, p.o.

Experimental for ileum: (§2) The effects of the new compounds exerted on the gastric acid secretion and Shay ulcer was examined according to the method of H. Shay et al. (Gastroenterology 5, 43/1945/), while their inhibition effect exerted on immobilisation and insuline ulcer was tested according to the method of Borsi et al. (Acta Pharm. Hung. 38, 151 /1968/). […] All experiments were carried out on rats. As reference substance, methantheline (diethyl-/2-hydroxyethyl/-methylammonium bromide xanthene-9-carboxylate) was used.
Experimental for in vivo: as §2

In general, ED50 refers to the dose at which the effect has come halfway, by size or by number of responders. The LD50 is the dose expected to kill half of the subjects tested. For `O=C(CNC1CC1)Nc1nc(-c2cccnc2)cs1` [Example 2, 2-cyclopropylamino-acetamido-4-(3'-pyridyl)-thiazole], the ED50 in the series on gastric acid secretion was 8 mg/kg; in the series with Shay ulcer, 40 mg/kg; in the series on immobilisation ulcer it was 27 mg/kg; in the series on insuline ulcer, 6 mg/kg; in the series “in vivo”, above 100 mg/kg. The values for the median lethal dose (LD50) in the series “acute toxicity” (setting [1]) and in the series “acute toxicity” (setting [2]) were 310 mg/kg and 420 mg/kg, respectively. The “Anticholinergic effect, ED50, ileum” value with ileum was above 1 gamma.
As to `CCNCC(=O)Nc1nc(-c2cccnc2)cs1` [Example 4, 2-(Ethylamino-acetamido)-4-(3'-pyridyl)-thiazole], the 50% effective dose (ED50) in the series on gastric acid secretion was 16 mg/kg; in the series on Shay ulcer, above 40 mg/kg; with immobilisation ulcer it was 40 mg/kg; in the series on insuline ulcer, 12 mg/kg; in “in vivo”, above 100 mg/kg. The results for the LD50 in the series “acute toxicity” (setting [1]) and in the series “acute toxicity” (setting [2]) were 240 mg/kg and 550 mg/kg, respectively. In addition, the “Anticholinergic effect, ED50, ileum” value in the series with ileum is recorded as above 1 gamma.
As for `CCN(CC)CC(=O)Nc1nc(-c2cccnc2)cs1` [Example 5, 2-(Diethylamino-acetamido)-4-(3'-pyridyl)-thiazole], the ED50 was 40 mg/kg with gastric acid secretion; above 40 mg/kg in the series on Shay ulcer; 40 mg/kg in the series with immobilisation ulcer; above 40 mg/kg in the series with insuline ulcer; above 100 mg/kg in “in vivo”. For the same compound, the LD50 in “acute toxicity” (setting [1]) was 460 mg/kg; in “acute toxicity” (setting [2]) it was 1400 mg/kg. In addition, the “Anticholinergic effect, ED50, ileum” value in the series on ileum is listed as above 1 gamma.
Take `O=C(CNCc1ccccc1)Nc1nc(-c2cccnc2)cs1` [Example 8, 2-(Benzylamino-acetamido)-4-(3'-pyridyl)-thiazole]: the figures for the median effective dose (ED50) with gastric acid secretion, with Shay ulcer and in “in vivo” were 20 mg/kg, above 40 mg/kg and above 100 mg/kg, respectively. In addition, the LD50 in the series “acute toxicity” (setting [1]) was above 1000 mg/kg; in the series “acute toxicity” (setting [2]), 1000 mg/kg. Moreover, the “Anticholinergic effect, ED50, ileum” value in the series with ileum was above 1 gamma.
With `O=C(CNc1ccccc1)Nc1nc(-c2cccnc2)cs1` [Example 16, 2-(Phenylamino-acetamido)-4-(3'-pyridyl)-thiazole], the ED50 is above 40 mg/kg with gastric acid secretion; above 40 mg/kg with Shay ulcer; above 40 mg/kg with immobilisation ulcer; above 40 mg/kg in the series on insuline ulcer; above 100 mg/kg in “in vivo”. The LD50 in the series “acute toxicity” (setting [1]) is above 1000 mg/kg; in “acute toxicity” (setting [2]), above 2000 mg/kg. The “Anticholinergic effect, ED50, ileum” value in the series with ileum was above 1 gamma.
For the compound `O=C(CN1CCCCC1)Nc1nc(-c2cccnc2)cs1` [Example 17, 2-(Pentamethyleneimino-acetamido)-4-(3'-pyridyl)-thiazole], the ED50 with gastric acid secretion was above 40 mg/kg; in the series on Shay ulcer it was above 40 mg/kg; in the series on immobilisation ulcer it was above 40 mg/kg; with insuline ulcer, above 40 mg/kg; in “in vivo”, above 100 mg/kg. In addition, the LD50 in the series “acute toxicity” (setting [1]) was 650 mg/kg; in the series “acute toxicity” (setting [2]), 1300 mg/kg. Moreover, in the series with ileum, the “Anticholinergic effect, ED50, ileum” value is given as above 1 gamma.
Consider `O=C(CN1CCOCC1)Nc1nc(-c2cccnc2)cs1` [Example 18, 2-(4'-Morpholino-acetamido)-4-(3"-pyridyl)-thiazole], for which the results for the ED50 with gastric acid secretion, in the series with Shay ulcer and in the series “in vivo” were above 40 mg/kg, above 40 mg/kg and above 100 mg/kg, respectively. Besides, the LD50 was above 1000 mg/kg in “acute toxicity” (setting [1]) and 1300 mg/kg in “acute toxicity” (setting [2]). Moreover, the “Anticholinergic effect, ED50, ileum” value with ileum is recorded as above 1 gamma.
On to `O=C(CN1CCCCCCC1)Nc1nc(-c2cccnc2)cs1` [Example 19, 2-(Heptamethyleneimino-acetamido)-4-(3'-pyridyl)-thiazole], for which the ED50 with gastric acid secretion is above 40 mg/kg; in the series on Shay ulcer, above 40 mg/kg; in the series “in vivo” it was above 100 mg/kg. In addition, the median lethal dose (LD50) was above 1000 mg/kg in the series “acute toxicity” (setting [1]) and above 2000 mg/kg in the series “acute toxicity” (setting [2]). In addition, the “Anticholinergic effect, ED50, ileum” value with ileum was above 1 gamma.
With `CC(C)CNCC(=O)Nc1nc(-c2cccnc2)cs1` [Example 24, 2-(Isobutylamino-acetamido)-4-(3'-pyridyl)-thiazole dihydrochloride], the ED50 in the series with gastric acid secretion is 23 mg/kg; with Shay ulcer it was above 40 mg/kg; in the series on immobilisation ulcer, above 40 mg/kg; with insuline ulcer it was 20 mg/kg; in the series “in vivo” it was above 100 mg/kg. The LD50 in “acute toxicity” (setting [1]) is 200 mg/kg; in the series “acute toxicity” (setting [2]), 350 mg/kg. Besides, the “Anticholinergic effect, ED50, ileum” value in the series on ileum is listed as above 1 gamma.
In the case of `CCCCCCNCC(=O)Nc1nc(-c2cccnc2)cs1` [Example 27, 2-(n-Hexylamino-acetamido)-4-(3'-pyridyl)-thiazole dihydrochloride], the ED50 with gastric acid secretion was 30 mg/kg; in the series with Shay ulcer, 50 mg/kg; with immobilisation ulcer, 25 mg/kg; with insuline ulcer it was 20 mg/kg; in “in vivo”, above 100 mg/kg. In addition, the LD50 was determined as 300 mg/kg in “acute toxicity” (setting [1]) and 450 mg/kg in the series “acute toxicity” (setting [2]). Also, in the series with ileum, the “Anticholinergic effect, ED50, ileum” value is recorded as above 1 gamma.
As to `CCCCCCCCNCC(=O)Nc1nc(-c2cccnc2)cs1` [Example 28, 2-(n-Octylamino-acetamido)-4-(3'-pyridyl)-thiazole dihydrochloride], the 50% effective dose (ED50) is 40 mg/kg in the series on gastric acid secretion, above 40 mg/kg in the series on Shay ulcer and above 100 mg/kg in the series “in vivo”. For the same compound, the values for the LD50 in the series “acute toxicity” (setting [1]) and in “acute toxicity” (setting [2]) were 200 mg/kg and 800 mg/kg, respectively. In addition, the “Anticholinergic effect, ED50, ileum” value in the series with ileum was above 1 gamma.
With `Cc1sc(NC(=O)CNC2CC2)nc1-c1cccnc1` [Example 31, 2-cyclopropylamino-acetamido-4-(3'-pyridyl)-5-methyl-thiazole dihydrochloride], the ED50 was 19 mg/kg in the series with gastric acid secretion; 50 mg/kg in the series on Shay ulcer; 30 mg/kg in the series with immobilisation ulcer; 20 mg/kg in the series on insuline ulcer; above 100 mg/kg in “in vivo”. The LD50 in the series “acute toxicity” (setting [1]) amounted to 500 mg/kg; in the series “acute toxicity” (setting [2]), 1000 mg/kg. Moreover, in the series with ileum, the “Anticholinergic effect, ED50, ileum” value is recorded as above 1 gamma.
As to `Cc1sc(NC(=O)CNCCO)nc1-c1cccnc1` [Example 32, 2-(2'-hydroxyethylamino-acetamido)-4-(3"-pyridyl)-5-methyl-thiazole], the 50% effective dose (ED50) in the series on gastric acid secretion was 35 mg/kg; in the series with Shay ulcer it was above 40 mg/kg; in the series on immobilisation ulcer it was above 40 mg/kg; with insuline ulcer, above 40 mg/kg; in the series “in vivo” it was above 100 mg/kg. For the same compound, the LD50 is 400 mg/kg in “acute toxicity” (setting [1]) and above 1500 mg/kg in the series “acute toxicity” (setting [2]). Also, the “Anticholinergic effect, ED50, ileum” value with ileum is recorded as above 1 gamma.
`O=C(CNC1CC1)Nc1nc(-c2ccncc2)cs1` [Example 33, 2-cyclopropylamino-acetamido-4-(4'-pyridyl)-thiazole dihydrochloride]: the median effective dose (ED50) in the series with gastric acid secretion was 20 mg/kg; in “in vivo”, above 100 mg/kg. In addition, the results for the median lethal dose (LD50) in “acute toxicity” (setting [1]) and in “acute toxicity” (setting [2]) were 600 mg/kg and 900 mg/kg, respectively. Also, the “Anticholinergic effect, ED50, ileum” value with ileum is recorded as above 1 gamma.
Regarding `CC[N+](C)(CC)CCOC(=O)C1c2ccccc2Oc2ccccc21` [Methantheline, diethyl-/2-hydroxyethyl/-methylammonium bromide xanthene-9-carboxylate, reference compound], the 50% effective dose (ED50) in the series on gastric acid secretion stood at 20 mg/kg; with Shay ulcer it was 15.2 mg/kg; in the series on immobilisation ulcer, 20.7 mg/kg; in the series with insuline ulcer, 11.5 mg/kg; in the series “in vivo”, 17 mg/kg. The LD50 stood at 76 mg/kg in the series “acute toxicity” (setting [1]) and 320 mg/kg in “acute toxicity” (setting [2]). For the same compound, in the series on ileum, the “Anticholinergic effect, ED50, ileum” value was 3×10^-^5 gamma.

These data come from US3963735A, “Acylated 2-aminothiazole derivatives” (Egyt Gyogyszervegyeszeti Gyar, priority 1973, dated 1976).
